{"source": "patent US20170065564A1", "about": "“BIS-CYCLIC GUANIDINE COMPOUND COMPOSITIONS, METHODS OF USE AND TREATMENT THEREOF” (University of South Florida, priority 2014, published 2017)", "key": {"P. aeruginosa": {"system": "P. aeruginosa", "experiment": "MIC reanalysis in the presence of the efflux inhibitor reserpine", "type": "cell-based, Pseudomonas aeruginosa", "settings": "P. aeruginosa isolate 1420; 100 μM of reserpine or 2 μM of compound 1 individually", "source_text": "Given the minor variations observed in MIC for three of the Gram-negative organisms, and that these particular bacteria are renowned for efflux detoxification of antibacterial agents, we hypothesized that the differences observed likely relate to variation in efflux pump activity between strains. […] The effects observed appear to be universal, regardless of strain or compound tested. […] It should be noted that the data presented herein represents a worst-case scenario. […] Similar data was returned for all front runner agents, against all 10 isolates of the three Gram-negative organisms (data not shown). These findings support the hypothesis that inherent efflux mechanisms of certain Gram-negative organisms result in MIC variations for the lead bis-cyclic guanidines between clinical isolates."}, "K. pneumoniae": {"system": "K. pneumoniae", "experiment": "Resistance serial passage assay", "type": "cell-based, Klebsiella pneumoniae", "settings": "8 passages, concentration doubled each day", "protocol": "(§1) ESKAPE pathogens were grown overnight in liquid media at 37° C. These cultures were then diluted 1:100 in fresh media, and seeded into a 96-well plate. Lead bis-cyclic guanidines or control agents were added to respective wells at half MIC concentrations. Plates were then incubated for 24 hours at 37° C., with bacteria removed from these cultures on the following day, to inoculate fresh media (1:100 dilution) containing compounds at a 2-fold higher concentrations. These were then grown overnight, and the procedure repeated for a total of eight days. […] Each experiment was performed in triplicate, yielding identical results."}, "E. faecium": {"system": "E. faecium", "experiment": "Resistance serial passage assay", "type": "cell-based, Enterococcus faecium", "settings": "8 passages, concentration doubled each day", "protocol": "as §1"}, "A. baumannii": {"system": "A. baumannii", "experiment": "Resistance serial passage assay", "type": "cell-based, Acinetobacter baumannii", "settings": "8 passages, concentration doubled each day", "protocol": "as §1"}, "S. aureus": {"system": "S. aureus", "experiment": "Resistance serial passage assay", "type": "cell-based, Staphylococcus aureus", "settings": "8 passages, concentration doubled each day", "protocol": "as §1"}, "[1]": {"system": "Staphylococcus aureus (USA300 strain FPR3757)", "experiment": "Murine model of lethal peritonitis", "type": "in vivo, mice", "settings": "I.V.", "protocol": "Using MRSA as a representative ESKAPE organism, we infected mice with 1×10^8 bacterial cells in 5% mucin via intraperitoneal injection. At 1 h post-infection, mice were then I.V. injected with either vancomycin (positive control), or I.M. with our front runner compounds.\nSix mice per group were injected with 1×10^8 CFU ml^−1 of Staphylococcus aureus (USA300 strain FPR3757) in PBS containing 5% mucin. […] Mice were monitored twice daily for five days to assess mortality. The clinical endpoint of this study was when the mice reached a pre-moribund state. Characteristics of pre-moribund state include: hunched posture, rapid, shallow and/or labored breathing, ruffled fur, lethargy, failure to respond to stimuli, soiled anogenital area, paralysis, paresis, head tilt, circling, vocalizations, non-purposeful movements and/or were unable to eat or drink. Those mice reaching this state prior to the completion of the 5 day infection period were euthanized. The number of mice surviving between control and treatment groups was compared and analyzed for statistical significance using a log rank test."}, "[2]": {"system": "human red blood cells (hRBCs)", "experimental": "A hemolysis assay was performed using whole human blood (Bioreclamation), as described previously,^47 with the following modifications. Human red blood cells (hRBCs) were resuspended 20% v/v in 1× HA buffer (4.25 ml 10% NaCl; 1 ml CaCl2 in 50 ml sterile water), and lead agents were added at a concentration of 10 μM, to a final volume of 100 μl. Cells were incubated for 15 minutes at 37° C. before being centrifuged at 5,500 g for 1 minute to pellet non-lysed hRBCs. The supernatant was removed, added to a 96-well microtiter plate and the OD543 read using a Biotek synergy2 plate reader. The negative control was vehicle only (DMF), and the positive control was 1.0% triton X-100."}}, "data": [{"molecule": "COC(=O)[C@H]1[C@H]2C[C@@H]3c4[nH]c5cc(OC)ccc5c4CCN3C[C@H]2C[C@@H](OC(=O)c2cc(OC)c(OC)c(OC)c2)[C@@H]1OC", "note": "[reserpine, reference compound]", "values": [{"measurement": "effect on growth, agent alone", "setting": "P. aeruginosa", "value": "no effect"}]}, {"molecule": "CO[C@H]1/C=C/O[C@@]2(C)Oc3c(C)c(O)c4c(O)c(c(/C=N/N5CCN(C)CC5)c(O)c4c3C2=O)NC(=O)/C(C)=C\\C=C\\[C@H](C)[C@H](O)[C@@H](C)[C@@H](O)[C@@H](C)[C@H](OC(C)=O)[C@@H]1C", "note": "[rifampin, reference compound]", "values": [{"measurement": "increase in MIC after serial passage", "setting": "K. pneumoniae", "value": 128, "unit": "fold"}]}, {"molecule": "CN(C)[C@@H]1C(O)=C(C(N)=O)C(=O)[C@@]2(O)C(O)=C3C(=O)c4c(O)cccc4[C@@](C)(O)[C@H]3C[C@@H]12", "note": "[tetracycline, reference compound]", "values": [{"measurement": "increase in MIC after serial passage", "setting": "E. faecium", "value": 128, "unit": "fold"}, {"measurement": "increase in MIC after serial passage", "setting": "A. baumannii", "value": 128, "unit": "fold"}]}, {"molecule": "CN[C@H](CC(C)C)C(=O)N[C@H]1C(=O)N[C@@H](CC(N)=O)C(=O)N[C@H]2C(=O)N[C@H]3C(=O)N[C@H](C(=O)N[C@H](C(=O)O)c4cc(O)cc(O)c4-c4cc3ccc4O)[C@H](O)c3ccc(c(Cl)c3)Oc3cc2cc(c3O[C@@H]2O[C@H](CO)[C@@H](O)[C@H](O)[C@H]2O[C@H]2C[C@](C)(N)[C@H](O)[C@H](C)O2)Oc2ccc(cc2Cl)[C@H]1O", "note": "[vancomycin, reference compound]", "values": [{"measurement": "increase in MIC after serial passage", "setting": "S. aureus", "value": 128, "unit": "fold"}, {"measurement": "protectivity", "setting": "[1]; 5× MIC, 1 h post-infection (not significant)", "value": 50, "unit": "%"}, {"measurement": "protectivity", "setting": "[1]; 10× MIC, 1 h post-infection", "value": 100, "unit": "%"}]}, {"molecule": "Triton-X100", "values": [{"measurement": "hemolysis", "setting": "[2]", "value": 100, "unit": "%"}]}]}
